* marks the point of attachment. Acm = CC(=O)NC*
Key:
[1] = tested on: plasmid nucleic acid pRSVLuc; experiment: Surface plasmon resonance (BIAcore) binding kinetics of peptides/conjugates to immobilized biotinylated plasmid DNA; settings: for ka: apparent rate constant for association; for ka / kd: SPR, PBS, 25° C.; for kd: apparent rate constant for dissociation
Procedure: In the examples described below, SPR was detected using the BIAcore system. This machine contained an SPR detector and an integrated microfluidic cartridge which is engineered such that an analyte solution (cationic peptide) is continuously passed over the sensor chip. The sensor chip consists of a glass plate coated with a thin film of gold covered in a layer of carboyxymethyl dextran. The chip used has a dextran layer to which streptavidin is covalently attached. The chip is prepared for use by adding biotinylated nucleic acid which will be bound to the chip via the streptavidin-biotin interaction, and the same chip is used in a series of experiments.
As material binds to the immobilized nucleic acid molecule on the sensor chip, the SPR angle of plane polarized light shining on the surface of the chip is monitored by the detector. Changes in angle are defined as resonance units (RU) and data are collected every second. Background effects are detected and automatically subtracted by the use of a control flow cell in line with the nucleic acid flow cell.
A typical sensorgram has three phases: an association phase, an equilibrium phase and a dissociation phase (see FIG. 1). The rise in signal occurs as more peptide binds to the immobilized plasmid DNA until equilibrium conditions are reached. The height of the peak is directly proportional to the mass of peptide bound. If the flow continues with buffer containing no peptide, peptide begins to dissociate from the complex and the resonance signal is reduced. The sensorgram can be used to compute apparent rate constants for each of the three individual processes.
(1) dC/dt=ka [PF ] [Pmax -PB ]-kd [PB ]
Measurement of Binding Kinetics by Surface Plasmon Resonance
A 6 kilobase (kb) plasmid DNA (pRSVLuc) was biotinylated using photoactivatable biotin (Pierce and Warriner) as per manufacturer's instructions.
A sensor chip with immobilized streptavidin (SA5) was conditioned following manufacturer's instructions, i.e., three one-minute injections of 1 M NaCl: 50 mM NaOH followed by one 1 min injection of 0.5% SDS. Flow rate on the BlAcore sensing device was 20 μl per min, running buffer was phosphate buffered saline (PBS). Flow path was flow cells 1 and 2.
The flow path was switched to flow cell 2 only and the flow rate was reduced to 10 μl per minute. Biotinylated plasmid at a concentration of […] in 0.5M NaCl was injected for 3 mins.
Phosphate buffered saline was used as running buffer at a flow rate of 20 μl per minute. The flow path was over flow cells 1 and 2. Flow cell 1 was used as a reference cell. The experiments were carried out at a temperature of 25° C.
Peptides were injected at various concentrations for three minutes. The injection was followed by a 5 min dissociation phase before the injection port was washed. The sensor chip was regenerated by the injection of 2M NaCl for 1 min. If necessary, this injection was repeated to bring the response back down to baseline before the next peptide sample was injected.
The data was analysed using the methods described in the handbook (BIAevaluation 2.1. Software Handbook, Pharmacia Biosensor AB, Uppsala, Sweden).
Essentially the plots were evaluated as follows: The dissociation constant, kd, was determined first. A curve or family of curves (same NBC at different concentrations) were plotted as response (Y) versus time as Ln (Yo/Y) versus time. In the area where the Ln(Yo/Y) curve was linear, a fit of the default dissociation model [AB]=[A]+[B] was made. The association constant, ka, was then calculated by fitting the related association model on that part of the association curve where a plot of In(abs(dY/dt) versus time was linear. KD were approximated by dividing the calculated kd with the calculated ka.

[2] = tested on: KLN-205 squamous epithelial syngenic tumour cells; experiment: In vivo transfection of KLN-205 tumours in DBA2 mice by local injection of peptide/plasmid complexes (nitroreductase immunostaining); parameters: species or system mouse; settings: 0.5 μg peptide/μg DNA, intratumoural injection
Procedure: A representative in via cell transfection system is transfection of tumor cells using a murine carcinoma model.
The murine carcinoma model DBA2 containing the squamous epithelial syngenic tumour cell line KLN-205 was prepared as described in the Examples. A transfecting complex was prepared using a solution of plasmid DNA encoding a reporter gene or, for example, nitroreductase and a selected NBC peptide 0.5 μg peptide/μg DNA, as described herein. Where desired, a conjugate peptide was added to the transfecting complex, at a concentration of 0.1-0.3 μg […] peptide/μg DNA.
Transfection efficiency may be determined in a number of ways, including assessing the effect of the reporter gene on the target tissue, or by quantitating the gene product. Below, tissues samples were obtained and nitroreductase gene expression was ascertained via staining of tissue sections.
The ability to transfect tumor cells in vivo in mice was tested using plasmid nucleic acid carrying the nitroreductase reporter gene condensed on each of the following peptides: NBC15, NBC8, NBC9, NBC11, NBC7.
DBA2--male mice, aged 5-10 weeks were injected subcutaneously in each flank with a squamous epithelial syngenic tumour cell line KLN-205. The cell line was grown up in 175 ml T-flasks in standard EMEM medium containing 10% foetal calf serum. When the cells reached a density of 4×10^6 they were suspended by a standard trypsinization technique, washed in PBS and diluted to a final concentration of […].
The anaesthetic was Enflurane (Alynane; Anaquest, Ltd., Windlesham, Surrey UK): Ketamine (10% Ketaset, Willows Francis Veterinary, Cramley, West Sussex, UK); Rompun (2%, Bayer UK, Ltd., Suffolk, UK). For 10 ml anaesthetic mixture: 8.5 ml PBS; 1 ml Ketamine; 0.5 ml Rompun. Each animal was injected intra-peritoneally with 200 μl/animal using 1 ml syringe with 25 gauge needle. Once anaesthetized, the tumour is manipulated between the fingers lifting it slightly away from the animal's body and at the same time apply minimum pressure to the tumour. Using a 0.5 ml insulin needle the formulated delivery vehicle (a plasmid containing the E. coli nitroreductase gene condensed on a peptide at a ratio of 0.5 μg peptide/μg DNA) to be injected is taken up and the tumour is injected horizontally trying to avoid any visible blood vessels and necrotic or abnormal tissue. Daily monitoring is continued until the experiment is terminated.
7μ sections of frozen tumour tissue are prepared using standard methods and a Cryostat and air dried. Sections are fixed with freshly prepared 4% PFA/PBS for 30 mins at room temperature and then washed twice with 0.01% Tween-20/PBS 5 mins each wash. Sections are then immersed in 0.25% hydrogen peroxide/PBS, at room temperature (20C.) for 30 mins, and then washed three times in 0.01% Tween 20/PBS for 5 mins each wash. Sections are then permeabilised by treatment with ice cold 0.1 % TRITON X-100 for 5 mins, followed by a further two washes in 0.01% Tween-20/PBS 5mins each wash. The sections are then blocked with 5% NGS/PBS 60mins at room temperature in a wetbox. After decanting the blocking solution, 0.5 ml diluted antiserum/slide (1:400 in 2.5% NGS) is added and the sections incubated for 60 mins at room temperature. Slides are then washed three times in 0.01% Tween-20/PBS 5 mins each wash. Secondary antibody (0.5 ml) from ABC Elite Vector stain kit is added as follows and incubated 30 mins at room temperature in a wetbox.
The tumour is a murine syngenic squamous carcinoma produced by subcutaneous injection of KLN205 cells. When the tumours were approximately 4 mm in diameter they were injected with 20 μl of plasmid DNA formulated with the NBC15 peptide. After 48 h the tumours were excised and sectioned by standard histological techniques and immunostained for expression of the transgene (E. coli nitroreductase). […] In this case the tumours were injected with the same plasmid formulated in 0.5 μg NBC9 peptide/μg DNA.

| Substance | ka [1] | kd [1] | association reaction ([1]; shape of association kinetics) | ranking by numbers of transfected tumor cells (most to least efficient) [2] | number of transfected tumor cells / level of transfection ([2]; 48 h, nitroreductase immunostaining) |
| --- | --- | --- | --- | --- | --- |
| H-TRPAWRRAKRRAARRCGVSARRAARRAWRRE-OH [NBC7] | 3670 M⁻¹ s⁻¹ | 0.000133 s⁻¹ | clear biphasic kinetics | NBC15>NBC8, NBC9, NBC11>NBC7>>>poly-lysine | – |
| NH2-TKKSPKKAKKPAAKKSPKKAKKPAAKKSPKKAKKPAAC(Acm)-COOH (H-TKKSPKKAKKPAAKKSPKKAKKPAAKKSPKKAKKPAAC(Acm)-OH; SMILES CC(=O)NCSC[C@H](NC(=O)[C@H](C)NC(=O)[C@H](C)NC(=O)[C@@H]1CCCN1C(=O)[C@H](CCCCN)NC(=O)[C@H](CCCCN)NC(=O)[C@H](C)NC(=O)[C@H](CCCCN)NC(=O)[C@H](CCCCN)NC(=O)[C@@H]1CCCN1C(=O)[C@H](CO)NC(=O)[C@H](CCCCN)NC(=O)[C@H](CCCCN)NC(=O)[C@H](C)NC(=O)[C@H](C)NC(=O)[C@@H]1CCCN1C(=O)[C@H](CCCCN)NC(=O)[C@H](CCCCN)NC(=O)[C@H](C)NC(=O)[C@H](CCCCN)NC(=O)[C@H](CCCCN)NC(=O)[C@@H]1CCCN1C(=O)[C@H](CO)NC(=O)[C@H](CCCCN)NC(=O)[C@H](CCCCN)NC(=O)[C@H](C)NC(=O)[C@H](C)NC(=O)[C@@H]1CCCN1C(=O)[C@H](CCCCN)NC(=O)[C@H](CCCCN)NC(=O)[C@H](C)NC(=O)[C@H](CCCCN)NC(=O)[C@H](CCCCN)NC(=O)[C@@H]1CCCN1C(=O)[C@H](CO)NC(=O)[C@H](CCCCN)NC(=O)[C@H](CCCCN)NC(=O)[C@@H](N)[C@@H](C)O)C(=O)O) [NBC9] | 97800 M⁻¹ s⁻¹ | 0.00293 s⁻¹ | – | NBC15>NBC8, NBC9, NBC11>NBC7>>>poly-lysine | Although transfection is evident the level of transfection is noticeably lower |
